Test results: patent US20220048884A1, “NRF2 ACTIVATOR” (BIOGEN MA INC., priority 2017, published 2022)

How the values were obtained:
Nrf2 target genes [1] = assay: Nrf2 target gene expression (qRT-PCR) in tissues of mice after oral dosing; type: in vivo, C57BL/6 mice; details: wild-type mice, 10 and 50 mg/kg single oral dose, 2 hours after dosing
Description: RNA was extracted in chloroform and the aqueous phase was mixed with an equal volume of 70% ethanol. Extracted RNA was applied to RNeasy 96 plates and purified by the spin method according to the manufacturer's protocol (RNeasy 96 Universal Tissue Protocol, QIAgen, Hilden Germany).

human astrocytes [2] = assay: Glutathione assay in human astrocytes (GSH-Glo); type: cell-based; details: 20-hr exposure
Method: (§1) Human astrocytes from ScienCell (cat #1820) were grown in astrocyte medium per supplier's instructions. Cells cultured for no more than two passages were plated in 96-well plates at 40,000 cells per well for gene transcription experiments and 20,000 cell per well for glutathione and cytoprotection assays.
Intracellular glutathione was measured after a 20-hr exposure to test compounds by a two-step process. First, cells were lysed and luciferin quantitatively generated from substrate, catalyzed by glutathione-S-transferase in the presence of analyte glutathione. Then luciferin was assayed using stabilized luciferase to produce a luminescent signal proportional to the concentration of glutathione (Promega GSH-Glo, cat #V6912).

human astrocytes [3] = assay: Cytoprotection of astrocytes against sodium arsenite; type: cell-based; details: compound 20 hrs before 25 μM sodium arsenite, then 22 hrs
Method: as §1
Astrocytes were treated for 20 hrs as above, then the medium was removed and replaced with serum- and supplement-free growth medium with and without 25 μM sodium arsenite. After 22 hrs., cells were washed with PBS, fixed with 4% paraformaldehyde/4% sucrose in PBS, stained with 4′,6-Diamidino-2-phenylindole dihydrochloride (DAPI) and counted by quantitative fluorescence microscopy.

Nrf2 target genes [4] = assay: Gene expression (RT-PCR) in cultured human astrocytes; type: cell-based; details: 20 hours, increasing concentrations
Method: as §1
Primary cultures of human spinal cord astrocytes were treated with compound for 20 hours. The cells were then rinsed in PBS, lysed, and processed for RNA using Ambion Tagman™ Cells-to-CT kit. The resulting cDNA was stored at −20° C. until analysis by real-time polymerase chain reaction (RT-PCR). The cDNA mixture from Cells-to-CT was diluted 5× before loading into PCR. This yields results similar to using 6 ng of purified cDNA. RT-PCR was performed on Life Technologies QuantStudio platform using OpenArray technique according to manufacturer's protocol using the following Taqman primers: […]
The comparative CT method was used to calculate fold changes using ThermoFisher Cloud software for PCR analysis. Samples were compared to vehicle control.

NRF2 = assay: PathHunter Nuclear Translocation assay (DiscoverX), agonist format; type: cell-based; details: 6 hours incubation, 10 concentrations, 30 μM top concentration
Description: Vehicle concentration was 1%.
Microplates were read following signal generation with a PerkinElmer Envision™ instrument for chemiluminescent signal detection.

Row | Structure (SMILES) | expression of Osgin1 in brain (Nrf2 target genes [1]) | intracellular glutathione (human astrocytes [2]) | protection from oxidative stress-induced cell death (human astrocytes [3]) | transcription of GCLC (Nrf2 target genes [4]) | transcription of HMOX1 (Nrf2 target genes [4]) | transcription of NQO1 (Nrf2 target genes [4]) | transcription of OSGIN1 (Nrf2 target genes [4]) | EC50 (NRF2) [nM]
1 | CCn1nnc2c(C)c([C@@H](CC(=O)O)c3ccc4c(c3)CN(C(=O)c3c(C)c(C)cc(C)c3C)CC4)ccc21 [Example 47-Ent1, (S)-3-(1-ethyl-4-methyl-1H-benzo[d][1,2,3]triazol-5-yl)-3-(2-(2,3,5,6-tetramethylbenzoyl)-1,2,3,4-tetrahydroisoquinolin-7-yl)propanoic acid] | increases the expression | increases intracellular glutathione | protects cells from oxidative stress-induced cell death | induces transcription | induces transcription | induces transcription | induces transcription | 
2 | CCn1nnc2c(C)c([C@H](c3ccc4c(c3)CN(C(=O)c3ccc(C)c(C)c3)CC4)[C@H](C)C(=O)ON)ccc21 [Example 133, amino (2S,3S)-3-[2-(3,4-dimethylbenzoyl)-3,4-dihydro-1H-isoquinolin-7-yl]-3-(1-ethyl-4-methyl-benzotriazol-5-yl)-2-methyl-propanoate] |  |  |  |  |  |  |  | < 100
